pIC50: −log10 of the molar value.
Assays:
Target C [1] = experiment: RT-qPCR splicing assay panel, Target C canonical junction (CJ) mRNA; type: cell-based, human; conditions: Homo sapiens; Table 5 panel; canonical junction qPCR; compound concentration having 50% response in CJ decrease; read-out: Target C IC50 (decrease in CJ mRNA levels)
Method in brief: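 Read-out is canonical exon-exon junction mRNA quantified by RT-qPCR against a GAPDH, GUSB or PPIA control. Cells (A673 or K562) received compound for 24 h, top final dose 10 uM in an 11-point 3-fold series.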

MYB = experiment: HiBiT protein abundance assay, MYB HiBiT K562 cell line; type: cell-based, human; conditions: HiBiT K562 cell line, 24 hours, top dose 10 μM; read-out: Effect on protein abundance, MYB (IC50 category)
Method in brief: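 Endogenous targets in K562 knock-in lines carried a HiBiT tag and were treated for 24 h at 37 °C with 10-point 3-fold dilutions (top 10 μM final, DMSO ≤0.25%). Abundance was read as lytic Nano-Glo HiBiT luminescence. IC50 came from a four-parameter logistic fit of normalized response.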

[2] = system: K562 (human chronic myelogenous leukemia) cells; experiment: Cell Titer Glo 2.0 cell viability assay; type: cell-based; conditions: Homo sapiens, K562, 72 h, K562 cells, 72 hours, Cell Titer Glo 2.0; read-out: K562 GI50
Target C [3] = experiment: HiBiT protein abundance assay, Target C (Promega Nano-Glo HiBiT Lytic Detection System, knock-in K562 cell line); type: cell-based, human; conditions: Homo sapiens, K562, 24 h, HiBiT K562 cell line, 24 hours, top dose 10 μM; read-out: Effect on protein abundance, Target C (IC50 category)
Method in brief: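 HiBiT knock-in K562 cells (10,000/well) were treated for 24 h at 37 °C with a 10-point 3-fold dilution series, top final concentration 10 μM, DMSO ≤0.25%. Lytic HiBiT luminescence was read, normalized to unmodified K562 and DMSO-treated controls, and IC50 was interpolated from a four-parameter logistic fit.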

Row | SMILES | pIC50 (Target C [1]) | pIC50 (MYB) | GI50 [2] | pIC50 (Target C [3])
1 | Cc1cn2nc(-c3cc(F)c4c(=O)n([C@@H]5CCNC6(CC6)C5)cnc4c3)cc(C)c2n1 [Compound 356] | 6.00 to 7.00 | > 7.00 | 100 to 1000 nM | > 7.00
2 | CNc1cc(-c2cc(F)c3nc(C)cn3c2)cc2ncn(C3CCNCC3)c(=O)c12 [Compound 358, 7-{8-fluoro-2-methylimidazo[1,2-a]pyridine-6-yl}-5-(methylamino)-3-(piperidin-4-yl)quinazolin-4-one] | < 5.00 | 5.00 to 6.00 | 1000 to 10000 nM | 5.00 to 6.00
3 | CNc1cc(-c2cc(C)c3nc(C)cn3n2)cc2ncn(C3CCNCC3)c(=O)c12 [Compound 359, 7-{2,8-dimethylimidazo[1,2-b]pyridazin-6-yl}-5-(methylamino)-3-(piperidin-4-yl)quinazolin-4-one] | < 5.00 | 6.00 to 7.00 | 100 to 1000 nM | 5.00 to 6.00
4 | CNc1cc(-c2cn3cc(C)nc3c(C)n2)cc2ncn(C3CCNCC3)c(=O)c12 [Compound 360, 7-{2,8-dimethylimidazo[1,2-a]pyrazine-6-yl}-5-(methylamino)-3-(piperidin-4-yl)quinazolin-4-one] | < 5.00 | < 5.00 | 1000 to 10000 nM | < 5.00
5 | CNc1cc(-c2cc(C#N)c3nc(C)cn3c2)cc2ncn(C3CCNCC3)c(=O)c12 [Compound 363, 2-methyl-6-[5-(methylamino)-4-oxo-3-(piperidin-4-yl)quinazolin-7-yl]imidazo[1,2-a]pyridine-8-carbonitrile] | < 5.00 | 5.00 to 6.00 | 1000 to 10000 nM | 5.00 to 6.00

Next, values leading:

Row | pIC50 (Target C [1]) | pIC50 (MYB) | GI50 [2] | pIC50 (Target C [3]) | SMILES
6 | 6.00 to 7.00 | > 7.00 | 100 to 1000 nM | > 7.00 | Cc1cn2nc(-c3cc(C)c4c(=O)n(C5CCNCC5)cnc4c3)cc(C)c2n1 [Compound 355]
7 | 6.00 to 7.00 | > 7.00 | 100 to 1000 nM | > 7.00 | Cc1cc(-c2cc(F)c3c(=O)n(C4CCNC5(CC5)C4)cnc3c2)nc2cn(C)nc12 (centres unmarked) [Compound 361, 3-{4-azaspiro[2.5]octan-7-yl}-7-{2,7-dimethylpyrazolo[4,3-b]pyridin-5-yl}-5-fluoroquinazolin-4-one]
8 | < 5.00 | 5.00 to 6.00 | 1000 to 10000 nM | < 5.00 | Cc1cn2nc(-c3cc(O)c4c(=O)n(C5CCNC5)cnc4c3)cc(C)c2n1 (centres unmarked) [Compound 362, 7-{2,8-dimethylimidazo[1,2-b]pyridazin-6-yl}-5-hydroxy-3-(pyrrolidin-3-yl)quinazolin-4-one]

— US20250332173A1, “COMPOUNDS AND METHODS FOR MODULATING NUCLEIC ACID SPLICING” (REMIX THERAPEUTICS INC., priority 2021, published 2025)
